Values of other authors, collected in PMC12326358, “Effect of Quantitative Structural Properties and Drug Formulation in Four Cannabinoids (Cannabidiol, Cannabigerol, Cannabichromene, and Cannabinol) on Their Lymphatic Transport after Enteral Administration in Rats” (Molecular Pharmaceutics, 2025).

Experiments:
[1] = Beagle dogs, formulation with drug dispersed in small lipid droplets; cited from earlier work
[2] = cited from earlier work
[3] = cited from earlier work; for log P: ref literature

Structure (SMILES): CC(C)(C)c1cc(C(C)(C)C)c(NC(=O)c2c[nH]c3ccccc3c2=O)cc1O [ivacaftor, reference compound]
- bioavailability increase [1]: 7 fold

Structure (SMILES): COc1nc(C(Cl)(Cl)Cl)c(Cl)c(OC)c1Cl [penclomedine]
- partitioning into lymph [2]: very limited partitioning into lymph
- solubility in long-chain triglycerides [3]: > 50 mg/g
- log P [3]: > 5

Structure (SMILES): CCCCCCCCCCC(=O)O[C@H]1CC[C@H]2[C@@H]3CCC4=CC(=O)CC[C@]4(C)[C@H]3CC[C@]12C [testosterone undecanoate]
- FRL ([2]; drug with prominent first-pass metabolism in the liver, ref literature): 98.5%
- log P [3]: 6.7
